Assay results published in patent US8101596B2, “Loxapine analogs and methods of use thereof” (Hypnion Inc., priority 2004, dated 2012).

Legend:
male Wistar rats = assay: Sleep-wakefulness monitoring (SCORE-2000) in rats; format: in vivo, rat; settings: CT-18
Procedure: Food and water were available ad libitum.
Treatments were administered orally as a bolus.
A parallel group study design was employed.

[1] = tested on: monkey cryopreserved hepatocytes; assay: Metabolism in monkey cryopreserved hepatocytes; format: in vitro ADME; settings: primate hepatocytes, 1 μM, in % (unit assumed)
Procedure: (§1) Metabolism of test articles in monkey and human cryopreserved hepatocytes was assayed as follows:
(§2) Sample is diluted with DMSO, to prepare 100 μM and 10 μM stocks. 0.1% formic acid in acetonitrile is prepared by the addition of 1 mL formic acid per 1 L acetonitrile (store RT for 3 months). 10 minute, 60 and 120 minute 96 well quenching plates are prepared with 150 μL acetonitrile+0.1% formic acid in each well. Store on ice or refrigerated.
(§3) Next, hepatocytes are thawed and 100 μL of cell suspension is placed into a microfuge tube with 100 μL 0.4% Trypan Blue solution and gently mix by inversion. A small amount of the stained cell suspension (approximately 15 μL) is placed into a clean hemacytometer with a coverslip. The hemacytometer is placed onto the stage of the microscope and the focus and power are adjusted until a single counting square fills the field. The number of cells in the four outside corner subdivided squares of the hemacytometer are counted. Viable cells are opalescent, round, and pale with a darker outline. Non-viable cells are dark, opaque blue.
(§4) 198 μL of hepatocytes are transferred to relevant wells on dosing plate.
(§5) Plates are preincubated for at least 15 min. Reactions are started 2 μL of appropriate test compound dilution from dosing plate. […]

[2] = tested on: human cryopreserved hepatocytes; assay: Metabolism in human cryopreserved hepatocytes; format: in vitro ADME; settings: 1 μM, in % (unit assumed)
Procedure: as §1, §2, §3, §4, §5

[3] = molecular target: T1, human recombinant M1 expressed in CHO cells (Homo sapiens, UniProt P11229); assay: M1 muscarinic receptor binding assay
T1 construct: purchased PerkinElmer, Inc., Wellesley, Mass; host or cells: CHO cells
T1 sequence (P11229 1-460): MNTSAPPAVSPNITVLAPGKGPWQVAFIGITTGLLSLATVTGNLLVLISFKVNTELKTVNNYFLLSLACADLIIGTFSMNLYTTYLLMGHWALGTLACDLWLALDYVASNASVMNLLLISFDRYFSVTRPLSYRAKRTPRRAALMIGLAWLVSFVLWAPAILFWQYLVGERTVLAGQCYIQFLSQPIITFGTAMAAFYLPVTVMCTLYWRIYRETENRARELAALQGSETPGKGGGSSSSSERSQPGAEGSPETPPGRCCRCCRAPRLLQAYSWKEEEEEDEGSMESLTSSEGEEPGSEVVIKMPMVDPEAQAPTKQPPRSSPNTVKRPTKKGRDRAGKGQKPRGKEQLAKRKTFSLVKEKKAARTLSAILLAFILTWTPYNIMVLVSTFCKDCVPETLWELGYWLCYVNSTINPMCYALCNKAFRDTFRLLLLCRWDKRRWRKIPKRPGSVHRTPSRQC

[4] = molecular target: T2, human recombinant M2 expressed in CHO cells (Homo sapiens, UniProt P08172); assay: M2 muscarinic receptor binding assay
T2 construct: purchased PerkinElmer, Inc., Wellesley, Mass; host or cells: CHO cells
T2 sequence (P08172 1-466): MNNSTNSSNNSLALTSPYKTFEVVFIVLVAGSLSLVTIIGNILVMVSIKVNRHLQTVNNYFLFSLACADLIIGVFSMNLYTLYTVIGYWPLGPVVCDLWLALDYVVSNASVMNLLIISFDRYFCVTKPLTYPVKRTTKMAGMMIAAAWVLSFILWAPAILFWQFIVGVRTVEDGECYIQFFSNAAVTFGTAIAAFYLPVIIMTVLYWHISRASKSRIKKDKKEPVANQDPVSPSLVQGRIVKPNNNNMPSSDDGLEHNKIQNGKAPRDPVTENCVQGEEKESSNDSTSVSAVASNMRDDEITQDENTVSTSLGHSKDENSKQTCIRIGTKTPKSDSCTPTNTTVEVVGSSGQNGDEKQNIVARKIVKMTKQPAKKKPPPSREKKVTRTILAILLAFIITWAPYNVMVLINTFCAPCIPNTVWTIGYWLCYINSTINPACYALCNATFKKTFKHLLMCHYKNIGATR

[5] = molecular target: T3, human recombinant M3 expressed in CHO cells (Homo sapiens, UniProt P20309); assay: M3 muscarinic receptor binding assay
T3 construct: purchased PerkinElmer, Inc., Wellesley, Mass; host or cells: CHO cells

H1 histamine receptor = molecular target: T4, H1 histamine receptor (Bos taurus, UniProt P30546); settings: reference compounds; read-out: Ki of reference compounds in H1 binding assay (unit inferred); cited from earlier work
T4 construct: the receptors were obtained from bovine cerebellar membrane tissue; from tissue; host or cells: bovine cerebellar membranes
T4 sequence (P30546 whole entry): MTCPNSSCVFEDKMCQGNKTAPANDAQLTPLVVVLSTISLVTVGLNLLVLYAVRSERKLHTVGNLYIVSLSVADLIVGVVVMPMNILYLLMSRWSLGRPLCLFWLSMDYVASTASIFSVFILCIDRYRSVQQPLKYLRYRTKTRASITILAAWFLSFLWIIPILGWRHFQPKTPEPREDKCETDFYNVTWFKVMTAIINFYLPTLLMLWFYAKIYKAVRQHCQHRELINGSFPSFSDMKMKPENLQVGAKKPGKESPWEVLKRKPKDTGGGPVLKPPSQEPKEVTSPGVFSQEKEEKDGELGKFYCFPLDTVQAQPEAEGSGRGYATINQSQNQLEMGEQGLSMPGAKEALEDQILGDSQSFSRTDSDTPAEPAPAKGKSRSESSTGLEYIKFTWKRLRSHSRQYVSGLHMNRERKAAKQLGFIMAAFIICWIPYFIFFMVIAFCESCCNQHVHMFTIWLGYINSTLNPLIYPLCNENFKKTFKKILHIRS

T3 sequence (P20309 whole entry): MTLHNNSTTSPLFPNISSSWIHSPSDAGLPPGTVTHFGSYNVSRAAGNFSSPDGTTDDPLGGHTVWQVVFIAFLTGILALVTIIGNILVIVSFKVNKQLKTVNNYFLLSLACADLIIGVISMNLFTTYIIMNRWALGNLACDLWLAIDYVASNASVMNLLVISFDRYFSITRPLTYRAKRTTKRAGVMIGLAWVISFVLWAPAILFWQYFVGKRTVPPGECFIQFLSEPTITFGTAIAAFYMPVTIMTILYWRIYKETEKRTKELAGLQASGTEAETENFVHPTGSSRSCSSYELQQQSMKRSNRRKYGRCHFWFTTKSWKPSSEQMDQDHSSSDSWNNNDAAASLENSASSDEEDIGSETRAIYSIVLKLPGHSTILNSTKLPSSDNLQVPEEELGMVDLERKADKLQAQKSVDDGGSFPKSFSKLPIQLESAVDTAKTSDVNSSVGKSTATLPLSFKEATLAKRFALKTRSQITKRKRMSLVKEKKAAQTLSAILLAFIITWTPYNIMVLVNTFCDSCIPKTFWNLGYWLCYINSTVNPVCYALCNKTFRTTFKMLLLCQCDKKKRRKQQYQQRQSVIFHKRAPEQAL

| SMILES | LUSB (longest uninterrupted sleep bout) (male Wistar rats; 10 mg/kg oral) | other results |
| --- | --- | --- |
| CC(C)(CN1CCN(C2=Nc3ccccc3Oc3ccccc32)CC1)C(=O)O [Compound 1] | 19.7 ± 6.7 min | LUSB (longest uninterrupted sleep bout) (male Wistar rats; 1 mg/kg oral): 6.0 ± 2.3 min; LUSB (longest uninterrupted sleep bout) (male Wistar rats; 3 mg/kg oral): 18.8 ± 3.0 min |
| CC(C)(CN1CCN(C2=Nc3ccccc3Oc3ccc(Cl)cc32)CC1)C(=O)O [Compound 5] | 8.7 ± 3.3 min | LUSB (longest uninterrupted sleep bout) (male Wistar rats; 3 mg/kg oral): 13.5 ± 4.0 min; remaining 120 minutes after treatment [1]: 75.105; remaining 120 minutes after treatment [2]: 90.405 |
| CC(C)(CCN1CCN(C2=Nc3ccccc3Oc3ccc(Cl)cc32)CC1)C(=O)O [Compound 6] |  | Ki [3]: > 10 µM; Ki [4]: > 10 µM; Ki [5]: > 10 µM |
| CC(C)(CN1CCN(C2=Nc3ccccc3Oc3ccc(Br)cc32)CC1)C(=O)O [Compound 8] | 16.7 ± 3.0 min |  |
| COc1ccc2c(c1)C(N1CCN(CC(C)(C)C(=O)O)CC1)=Nc1ccccc1O2 [Compound 12] | 18.1 ± 2.1 min | LUSB (longest uninterrupted sleep bout) (male Wistar rats; 1 mg/kg oral): 7.7 ± 3.2 min; LUSB (longest uninterrupted sleep bout) (male Wistar rats; 3 mg/kg oral): 8.3 ± 3.0 min |
| CC(C)(CN1CCN(C2=Nc3cc(Br)ccc3Oc3ccccc32)CC1)C(=O)O [Compound 17] | 5.0 ± 2.0 min |  |
| Cc1ccc2c(c1)N=C(N1CCN(CC(C)(C)C(=O)O)CC1)c1ccccc1O2 [Compound 19] | 11.7 ± 4.0 min | LUSB (longest uninterrupted sleep bout) (male Wistar rats; 3 mg/kg oral): 18.6 ± 3.3 min |
| Cc1ccc2c(c1)N=C(N1CCN(CC(C)(C)C(=O)O)CC1)c1cc(C)ccc1O2 [Compound 20] | 4.7 ± 2.3 min |  |
| CC(C)(CN1CCN(C2=Nc3ccccc3Oc3ccccc32)CC1)C(=O)NS(C)(=O)=O [Compound 40] | 7.6 ± 4.2 min | LUSB (longest uninterrupted sleep bout) (male Wistar rats; 30 mg/kg oral): 16.4 ± 2.9 min |
| COc1ccc2c(c1)N=C(N1CCN(CC(C)(C)C(=O)O)CC1)c1ccc(OC)cc1O2 [Compound 42] | 4.8 ± 2.7 min |  |
| Cc1ccc2c(c1)Oc1ccccc1N=C2N1CCN(CC(C)(C)C(=O)O)CC1 [Compound 46] | 11.1 ± 3.7 min | LUSB (longest uninterrupted sleep bout) (male Wistar rats; 1 mg/kg oral): 4.1 ± 1.6 min; LUSB (longest uninterrupted sleep bout) (male Wistar rats; 3 mg/kg oral): 17 ± 4.4 min |
| Cc1ccc2c(c1)C(N1CCN(CC(C)(C)C(=O)O)CC1)=Nc1cc(Br)ccc1O2 [Compound 50] | 3.4 ± 2.6 min |  |
| COc1ccc2c(c1)C(N1CCN(CC(C)(C)C(=O)O)CC1)=Nc1cc(Br)ccc1O2 [Compound 51] | 10.1 ± 3.6 min |  |
| Cc1ccc2c(c1)N=C(N1CCN(CC(C)(C)C(=O)O)CC1)c1ccc(C)cc1O2 [Compound 52] | 15.9 ± 2.3 min |  |
| COc1ccc2c(c1)C(N1CCN(CC(C)(C)C(=O)O)CC1)=Nc1cc(C)ccc1O2 [Compound 54] | 11.1 ± 2.9 min |  |
| COc1ccc2c(c1)N=C(N1CCN(CC(C)(C)C(=O)O)CC1)c1cc(C)ccc1O2 [Compound 56] | 11.7 ± 2.3 min |  |
| CN(C)CCCSC(=N)N [dimaprit] |  | Ki (H1 histamine receptor): > 110 µM |
